Assay results: patent US9353107B2 (Aurigene Discovery Technologies Limited, priority 2012, dated 2016)
Where a name gives a salt, the structure may show the parent alone.

Target: T1, recombinant human ALK enzyme (ALK WT) (Homo sapiens, UniProt Q9UM73)
T1 construct: purchased Carna Biosciences 08-518
Test: ALK WT cell free enzymatic assay (TR-FRET)
Type: biochemical
Details: 1 μM ATP; for IC50: 10 point dose response; for inhibition at 0.1 µM: compound at 100 nM; for inhibition at 0.1 µM / inhibition at 1 µM: 30 min pre-incubation; for inhibition at 1 µM: compound at 1 μM
Method in brief: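 Recombinant human ALK with 40 nM Ultra Light Poly GT, 1 μM ATP and Eu anti-phosphotyrosine antibody, 1% DMSO, pH 7.1 HEPES; 30 min enzyme-compound pre-incubation, then 30 min reaction. TR-FRET 665/615 ratio; percent inhibition at 100 nM and 1 μM, IC50 from 10-point sigmoidal fit.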

T1 sequence (Q9UM73 1058-1620 limits assumed): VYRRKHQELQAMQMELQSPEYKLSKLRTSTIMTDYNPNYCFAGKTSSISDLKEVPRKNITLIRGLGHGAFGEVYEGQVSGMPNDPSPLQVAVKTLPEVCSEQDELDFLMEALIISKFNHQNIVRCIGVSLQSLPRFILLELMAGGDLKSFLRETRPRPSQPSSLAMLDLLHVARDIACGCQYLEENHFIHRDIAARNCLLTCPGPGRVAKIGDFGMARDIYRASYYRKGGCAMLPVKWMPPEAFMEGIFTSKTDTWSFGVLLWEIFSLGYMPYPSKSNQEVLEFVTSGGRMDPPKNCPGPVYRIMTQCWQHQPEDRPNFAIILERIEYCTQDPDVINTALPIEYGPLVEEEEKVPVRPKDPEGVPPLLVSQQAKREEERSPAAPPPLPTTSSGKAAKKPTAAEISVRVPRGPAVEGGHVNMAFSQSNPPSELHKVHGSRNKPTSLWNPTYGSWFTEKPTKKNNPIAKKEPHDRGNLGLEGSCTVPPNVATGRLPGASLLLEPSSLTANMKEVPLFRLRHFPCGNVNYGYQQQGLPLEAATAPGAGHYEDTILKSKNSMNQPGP

CS(=O)(=O)Nc1cc(-c2cnc3[nH]cc(-c4ccn(Cc5cc(F)cc(F)c5)n4)c3c2)ccc1N1CCNCC1 [Example 113, N-(5-(3-(1-(3,5-difluorobenzyl)-1H-pyrazol-3-yl)-1H-pyrrolo[2,3-b]pyridin-5-yl)-2-(piperazin-1-yl)phenyl)methanesulfonamide]
IC50: < 50 nM | inhibition at 0.1 µM: 90% | inhibition at 1 µM: 97%

COc1ccc(-c2cnc3[nH]cc(-c4cnn(Cc5cccc(F)c5)c4)c3c2)cc1NS(C)(=O)=O [Example 13, N-(5-(3-(1-(3-fluorobenzyl)-1H-pyrazol-4-yl)-1H-pyrrolo[2,3-b]pyridin-5-yl)-2-methoxyphenyl) methane sulfonamide]
IC50: < 50 nM | inhibition at 1 µM: 96%

COc1ccc(-c2cnc3[nH]cc(-c4c(C)nn(Cc5cc(F)cc(F)c5)c4C)c3c2)cc1NS(C)(=O)=O [Example 19]
IC50: 50 to 250 nM | inhibition at 0.1 µM: 63% | inhibition at 1 µM: 96%

C[C@H](O)CN1CCC(c2ccc(-c3cnc4[nH]cc(-c5cnn(Cc6cccc(F)c6)c5)c4c3)cc2)CC1 [Example 82A, (S)-1-(4-(4-(3-(1-(3-fluorobenzyl)-1H-pyrazol-4-yl)-1H-pyrrolo[2,3-b]pyridin-5-yl)phenyl)piperidin-1-yl)propan-2-ol]
IC50: < 50 nM | inhibition at 0.1 µM: 96% | inhibition at 1 µM: 98%

Cc1nn(Cc2cccc(F)c2)c(C)c1-c1c[nH]c2ncc(-c3ccc(OCCCO)c(NS(C)(=O)=O)c3)cc12 [Example 25, N-(5-(3-(1-(3-fluorobenzyl)-3,5-dimethyl-1H-pyrazol-4-yl)-1H-pyrrolo[2,3-b]pyridin-5-yl)-2-(3-hydroxypropoxyl)phenyl)methanesulfonamide]
IC50: < 50 nM | inhibition at 0.1 µM: 86% | inhibition at 1 µM: 93%

C[C@H](O)CN1CCN(c2ccc(-c3cnc4[nH]cc(-c5cnn(Cc6cccc(F)c6)c5)c4c3)cc2F)CC1 [Example 114, (S)-1-(4-(2-fluoro-4-(3-(1-(3-fluorobenzyl)-1H-pyrazol-4-yl)-1H-pyrrolo[2,3-b]pyridin-5-yl)phenyl)piperazin-1-yl)propan-2-ol]
inhibition at 0.1 µM: 92% | inhibition at 1 µM: 99%

Fc1cccc(Cn2cc(-c3c[nH]c4ncc(-c5cccc(CC6CCNCC6)c5)cc34)cn2)c1 [Example 102, 3-(1-(3-fluorobenzyl)-1H-pyrazol-4-yl)-5-(3-(piperidin-4-ylmethyl)phenyl)-1H-pyrrolo[2,3-b]pyridine]
IC50: < 50 nM | inhibition at 0.1 µM: 91% | inhibition at 1 µM: 100%

CS(=O)(=O)Nc1cc(-c2cnc3[nH]cc(-c4cnn(CCc5ccccc5)c4)c3c2)ccc1F [Example 77, N-(2-fluoro-5-(3-(1-phenethyl-1H-pyrazol-4-yl)-1H-pyrrolo[2,3-b]pyridin-5-yl)phenyl)methane sulfonamide]
IC50: < 50 nM | inhibition at 0.1 µM: 85% | inhibition at 1 µM: 100%

CN1CCN(c2ccc(-c3cnc4[nH]cc(-c5cnn(CCc6ccccc6)c5)c4c3)cn2)CC1 [Example 141, 5-(6-(4-methylpiperazin-1-yl)pyridin-3-yl)-3-(1-phenethyl-1H-pyrazol-4-yl)-1H-pyrrolo[2,3-b]pyridine]
IC50: < 50 nM | inhibition at 0.1 µM: 58% | inhibition at 1 µM: 96%

Cc1nn(Cc2cccc(F)c2)c(C)c1-c1c[nH]c2nc(C3CC3)c(-c3ccc(N4CCNCC4)cc3)cc12 [Example 55, 6-cyclopropyl-3-(1-(3-fluorobenzyl)-3,5-dimethyl-1H-pyrazol-4-yl)-5-(4-(piperazin-1-yl)phenyl)-1H-pyrrolo[2,3-b]pyridine hydrochloride]
inhibition at 0.1 µM: 2% | inhibition at 1 µM: 43%

Cc1nn(Cc2cccc(F)c2)cc1-c1c[nH]c2ncc(-c3ccc(C4CCNCC4)c(F)c3)cc12 [Example 166, 5-(3-fluoro-4-(piperidin-4-yl)phenyl)-3-(1-(3-fluorobenzyl)-3-methyl-1H-pyrazol-4-yl)-1H-pyrrolo[2,3-b]pyridine]
IC50: < 50 nM | inhibition at 0.1 µM: 90% | inhibition at 1 µM: 98%

COc1ccc(-c2cnc3[nH]cc(-c4c(C)nn(Cc5cccc(F)c5)c4C)c3c2)c(OC)c1NS(C)(=O)=O [Example 29, N-(3-(3-(1-(3-fluorobenzyl)-3,5-dimethyl-1H-pyrazol-4-yl)-1H-pyrrolo[2,3-b]pyridin-5-yl)-2,6-dimethoxyphenyl)methanesulfonamide]
inhibition at 0.1 µM: 28% | inhibition at 1 µM: 48%

Cc1nn(Cc2cccc(F)c2)c(C)c1-c1c[nH]c2ncc(-c3cccc(NC4CCNCC4)c3)cc12 [Example 94, N-(3-(3-(1-(3-fluorobenzyl)-3,5-dimethyl-1H-pyrazol-4-yl)-1H-pyrrolo[2,3-b]pyridin-5-yl)phenyl)piperidin-4-amine]
IC50: < 50 nM | inhibition at 0.1 µM: 98% | inhibition at 1 µM: 100%

CS(=O)(=O)N1CCN(c2ccc(-c3cnc4[nH]cc(-c5cnn(Cc6cccc(F)c6)c5)c4c3)cc2)CC1 [Example 125, 3-(1-(3-fluorobenzyl)-1H-pyrazol-4-yl)-5-(4-(4-(methylsulfonyl)piperazin-1-yl)phenyl)-1H-pyrrolo[2,3-b]pyridine]
IC50: < 50 nM | inhibition at 0.1 µM: 86% | inhibition at 1 µM: 97%

CN1CCN(c2ncc(-c3cnc4[nH]cc(-c5cnn(Cc6cccc(F)c6)c5)c4c3)cc2F)CC1 [Example 179, 5-(5-fluoro-6-(4-methylpiperazin-1-yl)pyridin-3-yl)-3-(1-(3-fluorobenzyl)-1H-pyrazol-4-yl)-1H-pyrrolo[2,3-b]pyridine]
IC50: < 50 nM | inhibition at 0.1 µM: 92% | inhibition at 1 µM: 99%

CC(C)CN1CCN(c2ccc(-c3cnc4[nH]cc(-c5cnn(Cc6cccc(F)c6)c5)c4c3)cn2)CC1 [Example 152, 3-(1-(3-fluorobenzyl)-1H-pyrazol-4-yl)-5-(6-(4-isobutylpiperazin-1-yl)pyridin-3-yl)-1H-pyrrolo[2,3-b]pyridine]
IC50: < 50 nM | inhibition at 0.1 µM: 80% | inhibition at 1 µM: 100%

C[C@H](O)CN1CCN(c2ccc(-c3cnc4[nH]cc(-c5cnn(Cc6cccc(F)c6)c5)c4c3)c(F)c2)CC1 [Example 121, (S)-1-(4-(3-fluoro-4-(3-(1-(3-fluorobenzyl)-1H-pyrazol-4-yl)-1H-pyrrolo[2,3-b]pyridin-5-yl)phenyl)piperazin-1-yl)propan-2-ol]
IC50: < 50 nM | inhibition at 0.1 µM: 91% | inhibition at 1 µM: 95%

OC1CCN(c2ccc(-c3cnc4[nH]cc(-c5cnn(Cc6cccc(F)c6)c5)c4c3)cc2)CC1 [Example 122, 1-(4-(3-(1-(3-fluorobenzyl)-1H-pyrazol-4-yl)-1H-pyrrolo[2,3-b]pyridin-5-yl)phenyl)piperidin-4-ol]
IC50: < 50 nM | inhibition at 0.1 µM: 90% | inhibition at 1 µM: 96%

COc1ccc(-c2cnc3[nH]cc(-c4cnn(Cc5cccc(F)c5)c4)c3c2)cc1NS(=O)(=O)C1CC1 [Example 16, N-(5-(3-(1-(3-fluorobenzyl)-1H-pyrazol-4-yl)-1H-pyrrolo[2,3-b]pyridin-5-yl)-2-methoxyphenyl)cyclopropanesulfonamide]
inhibition at 0.1 µM: 33% | inhibition at 1 µM: 66%

CS(=O)(=O)Nc1cccc(-c2cnc3[nH]cc(-c4cnn(Cc5ccccc5F)c4)c3c2)c1 [Example 1, N-(3-(3-(1-(2-fluorobenzyl)-1H-pyrazol-4-yl)-1H-pyrrolo[2,3-b]pyridin-5-yl)phenyl)methanesulfonamide]
IC50: 50 to 250 nM | inhibition at 1 µM: 92%

C[C@H](O)CN1CCN(c2ccc(-c3cnc4[nH]cc(-c5cnn(CCc6ccccc6)c5)c4c3)cc2)CC1 [Example 117, (S)-1-(4-(4-(3-(1-phenethyl-1H-pyrazol-4-yl)-1H-pyrrolo[2,3-b]pyridin-5-yl)phenyl)piperazin-1-yl)propan-2-ol]
IC50: < 50 nM | inhibition at 0.1 µM: 91% | inhibition at 1 µM: 95%

C[C@H](O)CN1CCN(c2ccc(-c3cnc4[nH]cc(-c5cnn(Cc6ccccc6)c5)c4c3)cc2)CC1 [Example 118, (S)-1-(4-(4-(3-(1-benzyl-1H-pyrazol-4-yl)-1H-pyrrolo[2,3-b]pyridin-5-yl)phenyl)piperazin-1-yl)propan-2-ol]
IC50: < 50 nM | inhibition at 0.1 µM: 94% | inhibition at 1 µM: 98%

CNS(=O)(=O)c1cc(-c2cnc3[nH]cc(-c4c(C)nn(Cc5cccc(F)c5)c4C)c3c2)ccc1OC [Example 18, 5-(3-(1-(3-fluorobenzyl)-3,5-dimethyl-1H-pyrazol-4-yl)-1H-pyrrolo[2,3-b]pyridin-5-yl)-2-methoxy-N-methylbenzenesulfonamide]
IC50: 50 to 250 nM | inhibition at 0.1 µM: 62% | inhibition at 1 µM: 94%

Cc1nn(Cc2cccc(F)c2)c(C)c1-c1c(C2CC2)[nH]c2ncc(-c3ccc(N4CCNCC4)cc3)cc12 [Example 63, 2-cyclopropyl-3-(1-(3-fluorobenzyl)-3,5-dimethyl-1H-pyrazol-4-yl)-5-(4-(piperazin-1-yl)phenyl)-1H-pyrrolo[2,3-b]pyridine]
inhibition at 0.1 µM: 15% | inhibition at 1 µM: 48%

CS(=O)(=O)Nc1cccc(-c2cnc3[nH]cc(-c4cnn(Cc5ccc(F)cc5)c4)c3c2)c1 [Example 5, N-(3-(3-(1-(4-fluorobenzyl)-1H-pyrazol-4-yl)-1H-pyrrolo[2,3-b]pyridin-5-yl)phenyl) methanesulfonamide]
IC50: 50 to 250 nM | inhibition at 1 µM: 69%

Cc1nn(Cc2cccc(OC(F)(F)F)c2)c(C)c1-c1c[nH]c2ncc(-c3ccc(N4CCNCC4)cc3)cc12 [Example 52, 3-(3,5-dimethyl-1-(3-(trifluoromethoxy)benzyl)-1H-pyrazol-4-yl)-5-(4-(piperazin-1-yl)phenyl)-1H-pyrrolo[2,3-b]pyridine hydrochloride]
IC50: > 250 nM | inhibition at 0.1 µM: 12% | inhibition at 1 µM: 80%

CCS(=O)(=O)Nc1cc(-c2cnc3[nH]cc(-c4c(C)nn(Cc5cccc(F)c5)c4C)c3c2)ccc1OC [Example 15, N-(5-(3-(1-(3-fluorobenzyl)-3,5-dimethyl-1H-pyrazol-4-yl)-1H-pyrrolo[2,3-b]pyridin-5-yl)-2-methoxyphenyl)ethanesulfonamide]
inhibition at 0.1 µM: 33% | inhibition at 1 µM: 75%
